Biological target: T1, CDK2/Cyclin E (Homo sapiens, UniProt P24941)
T1 construct: The open reading frames of CDK2 and Cyclin E were isolated by reverse transcriptase-PCR; made in house; host or cells: Spodoptera frugiperda SF21 insect cells (baculovirus co-infection, pVL1393)
Experiment: in vitro kinase assay, Scintillation Proximity Assay (incorporation of [γ-33-P]-ATP into GST-Rb)
Type: biochemical
Settings: CDK2/Cyclin E partially-purified enzyme, GST-Rb substrate, 0.2 μM ATP, room temperature 60 minutes; read-out: CDK2 inhibitory activity IC50
Experimental: The compounds were tested in an in vitro kinase assay in 96 well format using Scintillation Proximity Assay (SPA—obtained from Amersham) for measuring incorporation of [γ-33-P]-Adenosine Triphosphate into a test substrate (GST-Retinoblastoma protein; GST-Rb). In each well was placed the compound to be tested (diluted in DMSO and water to correct concentrations) and in control wells either roscovitine as an inhibitor control or DMSO as a […] control.
Approximately 0.2 μl of CDK2/Cyclin E partially-purified enzyme (amount dependent on enzyme activity) diluted in 25 μl incubation buffer was added to each well then 20 μl of GST-Rb/ATP/ATP33 mixture (containing 0.5 μg GST-Rb and 0.2 μM ATP and 0.14 μCi [γ-33-P]-Adenosine Triphosphate in incubation buffer), and the resulting mixture shaken gently, then incubated at room temperature for 60 minutes. […]
The plates were sealed with Topseal-S plate sealers, left for two hours then spun at 2500 rpm, 1124×g., for 5 minutes. The plates were read on a Topcount for 30 seconds per well. […]
The open reading frames of CDK2 and Cyclin E were isolated by reverse transcriptase-PCR using HeLa cell and activated T cell mRNA as a template and cloned into the insect expression vector pVL1393 (obtained from Invitrogen 1995 catalogue number: V1392-20). […]

Cc1ncc(-c2ccnc(Nc3ccc(C(=O)NCCN(C)C)c(F)c3)n2)n1C(C)C [Example 2, N-(2-Dimethylaminoethyl)-2-fluoro-4-[[4-(2-methyl-3-propan-2-yl-imidazol-4-yl)pyrimidin-2-yl]amino]benzamide]
IC50: 3 nM
